Publication PMC8761492 (Life Science Alliance, 2022)
“And” between values parts separate entries of the source, which are not always exact repeats. Equal entries are not always repeated. Starred links: 1 amine or outer side, 2 acyl side, 3 side chain; linkers in the order of their positions; H or OH if unused. Positions of bridges follow the written chain, without caps; N, C: chain ends. Non-standard residues stand in square brackets, D forms with d. Residues, ends and D or L forms follow the SMILES beside them. *: point of attachment. X1 = CC[C@H](C)[C@@H](N[*:1])[C@@H](O)CC(=O)O[C@H](C(=O)[C@H](C)C(=O)[*:2])C(C)C; NMeY = CN[C@@H](Cc1ccc(O)cc1)C(=O)O; dNMeL = CN[C@H](CC(C)C)C(=O)O; Pyruvoyl = CC(=O)C(=O)*

Columns and labels:
SARS-CoV-2 = test: APLICOV-PC: SARS-CoV-2 viral load by qRT-PCR of nasopharyngeal samples; assay type: in vivo, human; conditions: for mean viral load decline from baseline: all doses; for log10 viral load: individual patients, ND = not detected
Procedure: Secondary outcomes included change from baseline of viral load, as evaluated by quantitative PCR via central laboratory on nasopharyngeal exudate or sampled from the lower respiratory tract within 48 h before first administration of plitidepsin and on days 4, 7, 15, and 31, and the percentage of patients requiring oxygen therapy, noninvasive mechanical ventilation, invasive mechanical ventilation and/or intensive care unit admission, and the percentage of patients with a fatal outcome on days 7, 15, and 31.
Centralized assessments of nasopharyngeal samples were performed at SYNLAB. Viral RNA extraction from the samples was performed using the Maxwell HT Viral TNA (AX2340) Promega, on the Hamilton automated extraction platform. Detection of nCoV2019 was carried out with the kit: TaqPath TM COVID-19 RT-PCR KIT (A48102) Thermo Fisher Scientific. The positivity/negativity criteria used for the interpretation of the results are defined in Table S7.
Each sample was analyzed in triplicate, and the cycle threshold (CT) value obtained was extrapolated to the standard curve, so that a value of viral load is obtained per reaction for said sample. The quantification, in triplicate, of the viral load of the patient sample was carried out at each of the five time points.
For quantification, in each sample plate, eight points, in triplicate (24 PCR in total), of the plasmid IDT 2019 nCov Kit CDC EUA of known viral load was used to generate the standard line on which to extrapolate the results of the samples of the trial patients. The sensitivity of the analytical method is 10 mRNA copies/run. Assuming a starting sample volume of 200 μl, from which 100 μl of mRNA can be obtained, and that a single PCR run requires 5 μl mRNA, it can be estimated that the sensitivity for 100% of the replicates is 1,000 mRNA copies/ml (3 log10). For mathematical analysis and graphical visualization, an intermediate value of 1.5 log10 has been imputed to samples with undetected SARS-CoV-2 mRNA.

[1] = Tissue distribution of total radioactivity after single IV bolus of [14C]plitidepsin; assay type: in vivo, Sprague–Dawley rats; conditions: rat, 0.2 mg/kg i.v. bolus
Procedure: An in vivo distribution study was carried out in rats. PM140064 (14C1-Plitidepsin) was supplied by PharmaMar at a radiochemical purity of 95% or greater, with no single impurity 3% or greater. The study was conducted at Aptuit Srl ([54]).
24 male and 24 female Sprague–Dawley rats each received a single IV bolus administration of [14C] Plitidepsin at a target dose of 0.2 mg/kg. After administration, three animals per time-point (0.25, 1, 2, 4, 8, 24, 48, and 72 h post-dose) were exsanguinated from the abdominal aorta and blood retained. Actual times of bleeding were recorded. In addition to blood, the following tissues were collected: brain, eyeballs, heart, liver, lung, skeletal muscle (quadriceps), fat, kidneys, stomach, skin, small intestine, spleen, thyroid, lymph nodes, and testes or ovaries. At the end of the collection period animals were euthanized by CO2 asphyxiation and the carcasses were discarded. Additional animals were bled to obtain control blood/plasma and tissues.

COVID-19 = test: APLICOV-PC: post hoc analysis of hospital discharge; assay type: in vivo, human
Procedure: Post hoc analyses were conducted to (1) assess disease severity at baseline (mild, moderate, severe COVID-19 by FDA criteria) ([23]) and (2) assess covariates associated with efficacy end points, including hospital discharge by Day 15 or Day 8.
The Kaplan–Meier method was used for the description of time to event end points and the median and the 95% confidence intervals were provided.

[2] = Plasma protein binding by equilibrium dialysis, rat plasma; assay type: in vitro ADME; conditions: male, CD, independent of drug concentration
Procedure: The binding of plitidepsin to plasma proteins was determined in vitro at three concentrations (100, 250 and 500 ng/ml) in male rat, dog and human plasma ([53]).
Rat (CD), beagle dog, and human blood was collected at Aptuit Srl from at least three male donors, and plasma prepared by centrifuging blood at 2,000g, 4°C for 10 min. Human plasma was obtained from healthy and fasted male volunteers. Na-heparin was used as the anti-coagulant for all species. All plasma was stored at approximately −20°C and thawed only once, on the day of the experiment.
Plasma protein binding was assessed using Rapid Equilibrium Dialysis plates pre-loaded with equilibrium dialysis membrane inserts (MWCO ∼8 kD).
Separation of free compound from protein-bound material was achieved by dialysis of the sample through the membrane under appropriate shaking at 37°C. The suitability of equilibrium dialysis as a method for protein binding determination of plitidepsin was assessed.
Before experimentation, the time required to reach equilibrium was determined in male rat and human plasma at one concentration (250 ng/ml) and six selected time points (2, 3, 4, 5, 6, and 7 h) at 37°C. […]

Compound: CC[C@H](C)[C@H]1NC(=O)[C@@H](NC(=O)[C@@H](CC(C)C)N(C)C(=O)[C@@H]2CCCN2C(=O)C(C)=O)[C@@H](C)OC(=O)[C@H](Cc2ccc(OC)cc2)N(C)C(=O)[C@@H]2CCCN2C(=O)[C@H](CC(C)C)NC(=O)[C@@H](C)C(=O)[C@H](C(C)C)OC(=O)C[C@@H]1O [Plitidepsin] (Pyruvoyl-P[dNMeL]T[X1]LP[NMeY](Me); ester 3-C)
- Mean time from baseline until undetectable viral load (SARS-CoV-2; 1.5 mg): 11 days
- Mean time from baseline until undetectable viral load (SARS-CoV-2; 2.0 mg): 14 days
- Mean time from baseline until undetectable viral load (SARS-CoV-2; 2.5 mg): 14 days
- Mean change in viral load from baseline to (SARS-CoV-2; Day 4, 1.5 mg): −1.23 log10 copies/ml
- Mean change in viral load from baseline to (SARS-CoV-2; Day 4, 2.0 mg): −1.49 log10 copies/ml
- Mean change in viral load from baseline to (SARS-CoV-2; Day 4, 2.5 mg): −1.32 log10 copies/ml
- Mean change in viral load from baseline to (SARS-CoV-2; Day 4, Total): −1.35 log10 copies/ml
- Mean change in viral load from baseline to (SARS-CoV-2; Day 7, 1.5 mg): −2.55 log10 copies/ml
- Mean change in viral load from baseline to (SARS-CoV-2; Day 7, 2.0 mg): −2.26 log10 copies/ml
- Mean change in viral load from baseline to (SARS-CoV-2; Day 7, 2.5 mg): −2.25 log10 copies/ml
- Mean change in viral load from baseline to (SARS-CoV-2; Day 7, Total): −2.35 log10 copies/ml
- Mean change in viral load from baseline to (SARS-CoV-2; Day 15, 1.5 mg): −4.22 log10 copies/ml
- Mean change in viral load from baseline to (SARS-CoV-2; Day 15, 2.0 mg): −2.70 log10 copies/ml
- Mean change in viral load from baseline to (SARS-CoV-2; Day 15, 2.5 mg): −2.92 log10 copies/ml
- Mean change in viral load from baseline to (SARS-CoV-2; Day 15, Total): −3.25 log10 copies/ml
- Mean change in viral load from baseline to (SARS-CoV-2; Day 31, 1.5 mg): −4.70 log10 copies/ml
- Mean change in viral load from baseline to (SARS-CoV-2; Day 31, 2.0 mg): −3.53 log10 copies/ml
- Mean change in viral load from baseline to (SARS-CoV-2; Day 31, 2.5 mg): −3.49 log10 copies/ml
- Mean change in viral load from baseline to (SARS-CoV-2; Day 31, Total): −3.85 log10 copies/ml
- Mean time from baseline until undetectable viral load (SARS-CoV-2; Total): 13 days
- mean viral load decline from baseline (SARS-CoV-2; day 4): 1.35 log10 copies/ml
- mean viral load decline from baseline (SARS-CoV-2; day 7): 2.35 log10 copies/ml
- mean viral load decline from baseline (SARS-CoV-2; day 15): 3.25 log10 copies/ml
- mean viral load decline from baseline (SARS-CoV-2; day 31): 3.85 log10 copies/ml
- log10 viral load (SARS-CoV-2; 1.5 mg/d, Day 4): 5.14 copies/ mL and 3.25 copies/ mL and 8.4 copies/ mL and 9.54 copies/ mL and 6.54 copies/ mL and 3.61 copies/ mL and 7.39 copies/ mL and 4.02 copies/ mL and 6.56 copies/ mL and 5.76 copies/ mL
- log10 viral load (SARS-CoV-2; 1.5 mg/d, Day 7): 8.47 copies/ mL and 6.63 copies/ mL and 4.34 copies/ mL and 4.7 copies/ mL and 5.83 copies/ mL and 4.71 copies/ mL and 3.82 copies/ mL
- log10 viral load (SARS-CoV-2; 1.5 mg/d, Day 15): 6.05 copies/ mL and 7.46 copies/ mL
- log10 viral load (SARS-CoV-2; 1.5 mg/d, Day 31): 4.42 copies/ mL
- log10 viral load (SARS-CoV-2; 2 mg/d, Day 4): 7.95 copies/ mL and 4.46 copies/ mL and 5.3 copies/ mL and 6.17 copies/ mL and 4.53 copies/ mL and 4.47 copies/ mL and 5.34 copies/ mL and 5.99 copies/ mL and 5.69 copies/ mL and 5.5 copies/ mL
- log10 viral load (SARS-CoV-2; 2 mg/d, Day 7): 6.52 copies/ mL and 4.68 copies/ mL and 4.59 copies/ mL and 3.38 copies/ mL and 4.02 copies/ mL and 3.62 copies/ mL and 4.33 copies/ mL and 2.89 copies/ mL and 5.2 copies/ mL and 5.49 copies/ mL
- log10 viral load (SARS-CoV-2; 2 mg/d, Day 15): 8.14 copies/ mL and 5.52 copies/ mL and 5.22 copies/ mL and 4.43 copies/ mL and 4.92 copies/ mL
- log10 viral load (SARS-CoV-2; 2 mg/d, Day 31): 7.37 copies/ mL and 4.31 copies/ mL and 4.69 copies/ mL
- log10 viral load (SARS-CoV-2; 2.5 mg/d, Day 4): 4.3 copies/ mL and 5.45 copies/ mL and 4.37 copies/ mL and 4.77 copies/ mL and 5.57 copies/ mL and 6.26 copies/ mL and 8.67 copies/ mL and 9.84 copies/ mL and 3.79 copies/ mL and 9.25 copies/ mL
- log10 viral load (SARS-CoV-2; 2.5 mg/d, Day 7): 3.05 copies/ mL and 4.44 copies/ mL and 5.49 copies/ mL and 3.33 copies/ mL and 7.29 copies/ mL and 9.54 copies/ mL and 6.99 copies/ mL
- log10 viral load (SARS-CoV-2; 2.5 mg/d, Day 15): 3.8 copies/ mL and 5.66 copies/ mL and 5.92 copies/ mL and 8.33 copies/ mL
- log10 viral load (SARS-CoV-2; 2.5 mg/d, Day 31): 3.6 copies/ mL and 5.33 copies/ mL and 4.68 copies/ mL
- mean time to undetectable viral load (SARS-CoV-2; patients with mild or moderate disease at baseline): 12 days
- mean time to undetectable viral load (SARS-CoV-2; patients with severe disease at baseline): 15 days
- lung-blood (LBR) AUC ratio [1]: around 8 fold
- discharge rate at Day 15 (COVID-19; 1.5 mg/day): 78.6%
- patients achieving hospital discharge by Day 8 (COVID-19; 1.5 mg/day): 42.9%
- discharge rate at Day 15 (COVID-19; 2 mg/day): 93.3%
- patients achieving hospital discharge by Day 8 (COVID-19; 2 mg/day): 60%
- discharge rate at Day 15 (COVID-19; 2.5 mg/day): 73.3%
- patients achieving hospital discharge by Day 8 (COVID-19; 2.5 mg/day): 66.7%
- median time to discharge (COVID-19; mild COVID-19 at baseline): 7 days
- discharge rate by Day 8 (COVID-19; mild disease, 4 of 6): 66.7%
- discharge rate by Day 15 (COVID-19; mild disease, 6 of 6): 100%
- median time to discharge (COVID-19; moderate COVID-19 at baseline): 7 days
- patients discharged beyond day 8 (COVID-19; moderate disease at baseline, 1.5 mg/day, three of eight): 38%
- patients discharged beyond day 8 (COVID-19; moderate disease at baseline, 2.0 mg/day, three of seven): 43%
- patients discharged by day 8 (COVID-19; moderate disease at baseline, 2.5 mg/day): 8 of 8
- discharge rate by Day 8 (COVID-19; moderate disease, 17 of 23): 73.9%
- discharge rate by Day 15 (COVID-19; moderate disease, 22 of 23): 95.7%
- discharge rate by day 8 (COVID-19; overall, 25 of 44): 56.8%
- discharge rate by day 15 (COVID-19; overall, 36 of 44): 81.8%
- median time to discharge (COVID-19; severe COVID-19 at baseline): 14 days
- discharge rate by Day 8 (COVID-19; severe disease, 4 of 15): 27%
- discharge rate by Day 15 (COVID-19; severe disease, 8 of 15): 53.3%
- fraction unbound [2]: 0.04
